Experimental data taken from patent US10208033B2, “β-carboline, dihydro-β-carboline and tetrahydro-β-carboline alkaloid derivatives and preparation methods same and use in aspects of preventing and treating plant viruses, fungicides and insecticides” (NANKAI UNIVERSITY, priority 2013, dated 2019).

Assays:
[1] = test system: tobacco mosaic virus (TMV); experiment: Anti-TMV in vitro effect (half-leaf soaking); assay type: cell-based, tobacco mosaic virus (host Nicotiana tabacum L.cv.Xanthi NN)
[2] = test system: tobacco mosaic virus (TMV); experiment: Anti-TMV in vivo inactivation; parameters: species or system tobacco mosaic virus (host Nicotiana tabacum L.cv.Xanthi NN)
[3] = test system: tobacco mosaic virus (TMV); experiment: Anti-TMV in vivo therapeutic effect; parameters: species or system tobacco mosaic virus (host Nicotiana tabacum L.cv.Xanthi NN)
[4] = test system: tobacco mosaic virus (TMV); experiment: Anti-TMV in vivo protective effect; parameters: species or system tobacco mosaic virus (host Nicotiana tabacum L.cv.Xanthi NN)
cucumber fusarium wilt = experiment: Fungicidal (bactericidal) activity in vitro, PDA colony diameter; assay type: cell-based; conditions: 50 mg/kg
Cercospora arachidicola = experiment: as above; assay type: cell-based; conditions: 50 mg/kg
Macrophoma kawatsukai = experiment: as above; assay type: cell-based; conditions: 50 mg/kg
Alternaria solani = experiment: as above; assay type: cell-based; conditions: 50 mg/kg
Fusarium graminearumt = experiment: microbe, parasite or virus in culture; assay type: cell-based; conditions: 50 mg/kg
potato late blight = experiment: microbe, parasite or virus in culture; assay type: cell-based
Sclerotinia scleotiorum = experiment: Fungicidal (bactericidal) activity in vitro, PDA colony diameter; assay type: cell-based; conditions: 50 mg/kg
Botrytis cinerea = experiment: as above; assay type: cell-based; conditions: 50 mg/kg
Rhizoctonia solani = experiment: as above; assay type: cell-based; conditions: 50 mg/kg
Phytophthora capsici = experiment: as above; assay type: cell-based; conditions: 50 mg/kg
Fusarium fujikuroi = experiment: as above; assay type: cell-based; conditions: 50 mg/kg
Rhizoctonia cereali = experiment: as above; assay type: cell-based; conditions: 50 mg/kg
Bipolaria maydis = experiment: organism not typed; assay type: cell-based; conditions: 50 mg/kg
[5] = test system: Colletotrichum orbiculare; experiment: Fungicidal (bactericidal) activity in vitro, PDA colony diameter; assay type: cell-based; conditions: 50 mg/kg
armyworms = assay type: in vivo; conditions: concentration 600 mg/kg
cotton bollworms = experiment: whole plant or invertebrate; conditions: concentration 600 mg/kg
Method: Experimental method of cotton bollworms: feed and drug mixing method: measure 3 mL of prepared solution and add it to about 27 g of newly prepared feed, thereby obtaining needed concentration through dilution by 10 times.

mosquito larvae = experiment: whole plant or invertebrate; conditions: concentration 10 mg/kg, 24 h
How it was run: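 Early fourth-instar Culex pipiens pallens larvae from an indoor colony, 10 per beaker, exposed to test compound at 5 ppm in water, diluted from a 1000 ppm acetone mother solution. Blank: water containing 0.5 mL test solvent.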

corn borers = conditions: concentration 600 mg/kg

| Structure (SMILES) | Relative inhibition rate (%) In vitro activity ([1]; treatment dose 100 μg/mL) | Relative inhibition rate (%) In vitro activity ([1]; treatment dose 500 μg/mL) | Relative inhibition rate (%) In vivo inactivation ([2]; treatment dose 100 μg/mL) | Relative inhibition rate (%) In vivo inactivation ([2]; treatment dose 500 μg/mL) | Relative inhibition rate (%) In vivo therapy ([3]; treatment dose 100 μg/mL) | Relative inhibition rate (%) In vivo therapy ([3]; treatment dose 500 μg/mL) | Relative inhibition rate (%) In vivo protection ([4]; treatment dose 100 μg/mL) | Relative inhibition rate (%) In vivo protection ([4]; treatment dose 500 μg/mL) | Bactericidal activity (%) Cucumber fusarium wilt (cucumber fusarium wilt) | Bactericidal activity (%) Cercospora arachidicola (Cercospora arachidicola) | Bactericidal activity (%) Macrophoma kawatsukai (Macrophoma kawatsukai) | Bactericidal activity (%) Alternaria solani (Alternaria solani) | Bactericidal activity (%) Fusarium graminearumt (Fusarium graminearumt) | Bactericidal activity (%) potato late blight (potato late blight) | Bactericidal activity (%) Sclerotinia scleotiorum (Sclerotinia scleotiorum) | Bactericidal activity (%) Botrytis cinerea (Botrytis cinerea) | Bactericidal activity (%) Rhizoctonia solani (Rhizoctonia solani) | Bactericidal activity (%) Phytophthora capsici (Phytophthora capsici) | Bactericidal activity (%) Fusarium fujikuroi (Fusarium fujikuroi) | Bactericidal activity (%) Rhizoctonia cereali (Rhizoctonia cereali) | also measured |
| --- | --- | --- | --- | --- | --- | --- | --- | --- | --- | --- | --- | --- | --- | --- | --- | --- | --- | --- | --- | --- | --- |
| C[C@@H]1N[C@H](C(=O)NNC(=O)c2ccncc2)Cc2c1[nH]c1ccccc21 [Id-3, (1S, 3S)—N′-isonicotinoyl-1-methyl-2,3,4,9-tetrahydropyridino [3,4-b] indol-3-formylhydrazine] | 6.4% | 39.2% | 17.9% | 45.3% | 11.6% | 45% | 14.2% | 42.1% | 13.6% | 27.3% | 39.4% | 14.3% | 53.8% | 26.1% | 3.8% | 55.6% | 15.3% | 15.2% | 29.4% | 18.9% | Bactericidal activity (%) Bipolaria maydis (Bipolaria maydis): 16.0%; Bactericidal activity (%) Colletotrichum orbiculare [5]: 36.0%; Armyworm Mortality (%) (armyworms): 25%; Cotton bollworm Mortality (%) (cotton bollworms): 40%; Mosquito larvae Mortality (%) (mosquito larvae): 50%; Corn borer Mortality (%) (corn borers): 25% |
| C[C@@H]1N[C@H](C(=O)NNC(=O)c2ccccc2)Cc2c1[nH]c1ccccc21 [Id-4, (1S, 3S)—N′-benzoyl-1-methyl-2,3,4,9-tetrahydropyridino [3,4-b] indol-3-formylhydrazine] | 0% | 36.9% | 0% | 37.5% | 0% | 34.2% | 12.1% | 40% | 13.6% | 27.3% | 45.5% | 33.3% | 38.5% | 17.4% | 7.7% | 55.6% | 5.6% | 18.2% | 29.4% | 35.1% | Bactericidal activity (%) Bipolaria maydis (Bipolaria maydis): 28.0%; Bactericidal activity (%) Colletotrichum orbiculare [5]: 32.0%; Armyworm Mortality (%) (armyworms): 10%; Cotton bollworm Mortality (%) (cotton bollworms): 30%; Mosquito larvae Mortality (%) (mosquito larvae): 25%; Corn borer Mortality (%) (corn borers): 15% |
